ChEMBL document CHEMBL1201862, “PubChem BioAssay data set” (2004)
Activity calls are given as the source filed them.

Columns and labels:
[1] = Luminescence Cell-Based Dose Confirmation to Identify Activators of 5'UTR Stem-Loop Driven Alpha-Synuclein mRNA Translation in H4 Neuroglioblastoma Cells. [Related pubchem assays: 1829 (Project Summary), 1814 (Primary HTS)]; type: functional
[2] = Luminescence Cell-Based Dose Response to Identify Activators of Luciferase Translation or Activity in H4-C Neuroglioblastoma Cells. [Related pubchem assays: 1829 (Project Summary), 1814 (Primary HTS)]; type: functional
[3] = Luminescence Cell-Based Dose Response to Identify Activators of 5'UTR Stem-Loop Driven Prion Protein mRNA Translation in H4-C Neuroglioblastoma Cells. [Related pubchem assays: 1829 (Project Summary), 1814 (Primary HTS)]; type: functional
[4] = Luminescence Cell-Based Dose Response HTS to Identify Activators of Luciferase Translation or Activity in H4 […] Cells. [Related pubchem assays: 1829 (Project Summary), 1814 (Primary HTS)]; type: functional
[5] = target: T1, Estrogen receptor beta (Homo sapiens, UniProt Q92731);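 note: recombinant ER-beta bound to coactivator SRC1 peptide in presence of estradiol agonist; inhibitors block coactivator peptide binding and lower the FRET signal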
T1 sequence (Q92731 whole entry): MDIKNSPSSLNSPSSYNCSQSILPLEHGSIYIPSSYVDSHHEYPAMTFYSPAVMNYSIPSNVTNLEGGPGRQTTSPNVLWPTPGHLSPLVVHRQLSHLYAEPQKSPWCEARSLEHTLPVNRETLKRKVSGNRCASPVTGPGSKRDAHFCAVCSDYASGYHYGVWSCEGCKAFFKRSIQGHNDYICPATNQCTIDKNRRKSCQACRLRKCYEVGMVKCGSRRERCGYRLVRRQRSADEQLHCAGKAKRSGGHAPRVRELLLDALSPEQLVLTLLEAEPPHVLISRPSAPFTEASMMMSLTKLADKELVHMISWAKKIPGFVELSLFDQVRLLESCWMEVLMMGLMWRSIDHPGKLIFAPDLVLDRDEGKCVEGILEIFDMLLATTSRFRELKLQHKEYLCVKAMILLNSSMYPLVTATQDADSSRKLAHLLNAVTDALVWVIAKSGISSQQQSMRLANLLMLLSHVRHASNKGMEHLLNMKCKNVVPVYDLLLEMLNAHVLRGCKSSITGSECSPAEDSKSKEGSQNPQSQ

[6] = target: T1, Estrogen receptor beta; experiment: blockers of SRC-3 recruitment to ERβ – biochemical, ELISA, streptavidin-HRP readout, orthogonal assay, confirmation (AID 1060)
[7] = target: T2, Protein skinhead-1 (Caenorhabditis elegans, UniProt P34707); type: functional
T2 sequence (P34707 whole entry): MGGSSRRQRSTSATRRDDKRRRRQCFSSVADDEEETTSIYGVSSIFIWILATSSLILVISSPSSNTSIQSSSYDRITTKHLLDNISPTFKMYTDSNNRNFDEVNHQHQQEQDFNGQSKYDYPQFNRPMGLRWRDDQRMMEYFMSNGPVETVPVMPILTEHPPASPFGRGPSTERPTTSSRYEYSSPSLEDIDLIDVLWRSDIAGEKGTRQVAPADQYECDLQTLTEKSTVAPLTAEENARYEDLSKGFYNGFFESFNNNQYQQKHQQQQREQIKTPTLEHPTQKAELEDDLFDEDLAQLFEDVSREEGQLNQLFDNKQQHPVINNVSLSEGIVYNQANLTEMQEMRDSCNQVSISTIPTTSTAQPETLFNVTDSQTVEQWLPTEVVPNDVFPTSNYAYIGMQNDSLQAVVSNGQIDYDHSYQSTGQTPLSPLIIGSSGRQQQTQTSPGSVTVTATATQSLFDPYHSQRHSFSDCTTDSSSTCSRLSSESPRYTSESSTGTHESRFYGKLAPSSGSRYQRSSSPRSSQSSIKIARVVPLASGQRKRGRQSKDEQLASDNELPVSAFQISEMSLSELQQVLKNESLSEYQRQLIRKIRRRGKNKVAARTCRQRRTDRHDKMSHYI

[8] = target: Ephrin type-A receptor 4 (Mus musculus, UniProt Q03137); experiment: EphA4 ligand-binding antagonists – biochemical, colorimetric, mouse EphA4, primary screen (AID 689); type: functional
Chain of Ephrin type-A receptor 4 (Q03137 whole entry): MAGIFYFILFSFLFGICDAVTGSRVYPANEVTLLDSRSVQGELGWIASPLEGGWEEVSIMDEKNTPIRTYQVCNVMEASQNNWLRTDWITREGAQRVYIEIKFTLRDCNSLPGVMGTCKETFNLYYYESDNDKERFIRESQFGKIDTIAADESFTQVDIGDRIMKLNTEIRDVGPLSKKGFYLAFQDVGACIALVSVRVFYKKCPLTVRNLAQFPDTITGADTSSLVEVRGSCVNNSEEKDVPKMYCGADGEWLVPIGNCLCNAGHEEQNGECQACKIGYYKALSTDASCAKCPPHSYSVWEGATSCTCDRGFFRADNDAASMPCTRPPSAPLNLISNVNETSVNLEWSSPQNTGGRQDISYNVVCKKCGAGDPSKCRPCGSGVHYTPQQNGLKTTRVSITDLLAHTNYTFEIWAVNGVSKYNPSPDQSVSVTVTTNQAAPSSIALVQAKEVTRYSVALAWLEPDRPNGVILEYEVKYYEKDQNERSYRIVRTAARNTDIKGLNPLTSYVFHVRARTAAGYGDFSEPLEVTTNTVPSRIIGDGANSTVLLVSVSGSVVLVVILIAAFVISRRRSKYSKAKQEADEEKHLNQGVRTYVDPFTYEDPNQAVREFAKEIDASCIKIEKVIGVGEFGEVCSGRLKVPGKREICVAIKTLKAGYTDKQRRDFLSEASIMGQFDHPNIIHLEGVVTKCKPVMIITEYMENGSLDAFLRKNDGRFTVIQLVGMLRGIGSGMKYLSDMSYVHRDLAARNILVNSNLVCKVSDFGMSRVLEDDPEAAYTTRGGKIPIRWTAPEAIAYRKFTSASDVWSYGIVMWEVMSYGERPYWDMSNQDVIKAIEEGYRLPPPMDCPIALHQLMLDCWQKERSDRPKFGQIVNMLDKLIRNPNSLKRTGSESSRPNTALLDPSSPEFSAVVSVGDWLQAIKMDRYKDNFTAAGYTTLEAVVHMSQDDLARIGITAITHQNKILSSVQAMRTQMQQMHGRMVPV

[9] = Trypanosoma cruzi growth suppression in host cells – NIH3T3 host cells, beta-gal luminescence, confirmation (AID 2044); type: functional, cell-based;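 note: intracellular parasites grown in NIH/3T3 mouse fibroblasts as host cells; luminescent beta-galactosidase reporter signal from transgenic T. cruzi replicating inside host cells; inhibitors lower the luminescence signal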
[10] = cells
[11] = NIH3T3 cell viability loss – ATP luminescence, mouse fibroblasts, counter-screen, dose response (AID 2010); type: functional, cell-based;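 note: cells exposed to compound for about 90 hours before reading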
[12] = target: T3, NADPH oxidase 1 (Homo sapiens, UniProt Q9Y5S8); type: functional, cell-based;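 note: Cell-based assay with luminescence read-out, IC50 derived from inhibitor dose-response curves; intracellular ROS from endogenous NOX1 in intact HT29 colon cancer cells; potency of inhibitors that lower the ROS luminescence signal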
T3 sequence (Q9Y5S8 whole entry): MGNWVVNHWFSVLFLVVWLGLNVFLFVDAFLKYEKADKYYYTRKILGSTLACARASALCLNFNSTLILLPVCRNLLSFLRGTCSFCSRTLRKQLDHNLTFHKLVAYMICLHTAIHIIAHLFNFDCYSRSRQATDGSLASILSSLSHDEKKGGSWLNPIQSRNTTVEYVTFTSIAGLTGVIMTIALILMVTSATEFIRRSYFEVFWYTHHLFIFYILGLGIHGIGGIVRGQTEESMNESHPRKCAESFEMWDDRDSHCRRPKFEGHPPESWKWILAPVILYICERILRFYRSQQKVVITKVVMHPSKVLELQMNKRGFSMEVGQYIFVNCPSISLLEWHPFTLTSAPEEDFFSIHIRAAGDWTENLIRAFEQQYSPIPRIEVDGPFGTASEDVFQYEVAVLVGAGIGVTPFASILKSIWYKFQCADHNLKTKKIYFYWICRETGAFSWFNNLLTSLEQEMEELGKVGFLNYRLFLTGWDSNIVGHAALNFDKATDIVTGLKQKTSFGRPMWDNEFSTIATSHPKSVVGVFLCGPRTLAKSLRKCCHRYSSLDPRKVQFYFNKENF

[13] = target: T4, Histone-lysine N-methyltransferase NSD2 (Homo sapiens, UniProt O96028); type: biochemical
T4 sequence (O96028 whole entry): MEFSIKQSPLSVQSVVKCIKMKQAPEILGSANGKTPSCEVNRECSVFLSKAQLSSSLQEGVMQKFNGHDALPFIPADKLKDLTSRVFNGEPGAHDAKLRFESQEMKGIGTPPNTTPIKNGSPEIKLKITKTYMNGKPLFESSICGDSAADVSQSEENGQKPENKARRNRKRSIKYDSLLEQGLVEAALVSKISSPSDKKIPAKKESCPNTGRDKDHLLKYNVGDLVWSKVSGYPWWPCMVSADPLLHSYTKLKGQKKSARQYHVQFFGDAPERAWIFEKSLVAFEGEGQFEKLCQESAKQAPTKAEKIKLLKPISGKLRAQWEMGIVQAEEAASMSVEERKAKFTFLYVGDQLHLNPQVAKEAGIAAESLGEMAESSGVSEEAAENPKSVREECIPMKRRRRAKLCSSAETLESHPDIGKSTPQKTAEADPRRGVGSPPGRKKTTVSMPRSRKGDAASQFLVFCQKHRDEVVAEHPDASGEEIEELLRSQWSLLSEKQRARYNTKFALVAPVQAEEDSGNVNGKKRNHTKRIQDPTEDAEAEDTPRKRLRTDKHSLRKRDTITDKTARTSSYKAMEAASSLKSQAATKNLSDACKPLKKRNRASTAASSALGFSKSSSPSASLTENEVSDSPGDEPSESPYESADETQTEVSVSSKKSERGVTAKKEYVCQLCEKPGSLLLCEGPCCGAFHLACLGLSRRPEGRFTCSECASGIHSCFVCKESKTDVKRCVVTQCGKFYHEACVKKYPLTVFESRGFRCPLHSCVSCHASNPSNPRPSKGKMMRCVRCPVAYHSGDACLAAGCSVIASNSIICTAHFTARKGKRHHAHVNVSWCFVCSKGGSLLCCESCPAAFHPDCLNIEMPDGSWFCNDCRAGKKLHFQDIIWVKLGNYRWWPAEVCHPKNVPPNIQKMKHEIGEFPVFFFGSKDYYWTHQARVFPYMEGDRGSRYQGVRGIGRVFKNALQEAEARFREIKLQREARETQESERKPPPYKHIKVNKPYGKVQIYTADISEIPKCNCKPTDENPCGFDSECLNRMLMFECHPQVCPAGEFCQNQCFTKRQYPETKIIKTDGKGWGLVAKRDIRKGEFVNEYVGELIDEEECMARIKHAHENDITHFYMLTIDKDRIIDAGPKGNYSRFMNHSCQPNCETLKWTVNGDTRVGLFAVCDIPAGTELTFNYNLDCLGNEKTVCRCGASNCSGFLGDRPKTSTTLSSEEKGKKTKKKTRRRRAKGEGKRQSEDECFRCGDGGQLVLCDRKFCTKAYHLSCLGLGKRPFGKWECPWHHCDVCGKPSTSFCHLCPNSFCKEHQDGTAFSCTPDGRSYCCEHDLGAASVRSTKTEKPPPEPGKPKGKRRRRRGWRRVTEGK

[14] = target: Transthyretin (Homo sapiens, UniProt P02766); experiment: Luminescence-based cell-based high throughput dose response assay to identify activators of Transthyretin (TTR) transcription.; type: functional
[15] = target: T5, Ubiquitin-conjugating enzyme E2 N (Homo sapiens, UniProt P61088); type: functional;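 note: Dose-response confirmation in a TR-FRET assay detecting UBC13-driven polyubiquitin chain formation, inhibition measured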
T5 sequence (P61088 whole entry): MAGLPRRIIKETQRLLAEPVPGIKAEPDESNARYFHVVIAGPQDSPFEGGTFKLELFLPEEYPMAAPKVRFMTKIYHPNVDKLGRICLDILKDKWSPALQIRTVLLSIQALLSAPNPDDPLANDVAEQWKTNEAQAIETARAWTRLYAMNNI

[16] = target: T6, Short transient receptor potential channel 4 (Mus musculus, UniProt Q9QUQ5); experiment: calcium entry via TRPC4 opening agents – cell-based, HEK293 TRPC4/mu-opioid, Fluo-4 calcium, dose response (AID 434937); type: functional
T6 sequence (Q9QUQ5 whole entry): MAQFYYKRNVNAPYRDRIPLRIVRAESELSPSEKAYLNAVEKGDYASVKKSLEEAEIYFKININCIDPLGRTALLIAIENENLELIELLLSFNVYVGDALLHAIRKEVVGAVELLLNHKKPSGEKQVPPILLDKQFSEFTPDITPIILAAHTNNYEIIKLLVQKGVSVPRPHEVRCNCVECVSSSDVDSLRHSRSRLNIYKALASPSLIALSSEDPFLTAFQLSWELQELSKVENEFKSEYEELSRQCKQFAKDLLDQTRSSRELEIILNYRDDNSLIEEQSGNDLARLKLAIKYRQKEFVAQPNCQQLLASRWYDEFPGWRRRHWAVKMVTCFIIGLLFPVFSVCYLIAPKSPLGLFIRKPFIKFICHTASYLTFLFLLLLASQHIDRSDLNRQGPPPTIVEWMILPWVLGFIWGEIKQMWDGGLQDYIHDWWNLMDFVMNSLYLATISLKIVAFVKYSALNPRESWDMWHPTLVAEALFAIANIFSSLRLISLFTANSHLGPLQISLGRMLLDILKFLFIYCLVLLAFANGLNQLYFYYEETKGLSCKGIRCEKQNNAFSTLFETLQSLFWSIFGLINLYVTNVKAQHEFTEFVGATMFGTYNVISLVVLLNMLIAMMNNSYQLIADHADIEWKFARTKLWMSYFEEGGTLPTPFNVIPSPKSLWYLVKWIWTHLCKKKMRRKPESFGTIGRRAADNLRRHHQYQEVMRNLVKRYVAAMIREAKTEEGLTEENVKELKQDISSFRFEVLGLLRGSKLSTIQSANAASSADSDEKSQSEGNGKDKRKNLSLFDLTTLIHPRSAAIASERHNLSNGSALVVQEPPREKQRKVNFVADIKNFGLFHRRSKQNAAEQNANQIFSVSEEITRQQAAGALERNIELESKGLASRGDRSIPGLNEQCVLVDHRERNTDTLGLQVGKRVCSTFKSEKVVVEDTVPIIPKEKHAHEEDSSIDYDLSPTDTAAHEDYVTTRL

[17] = target: E3 ubiquitin-protein ligase Mdm2 (Homo sapiens, UniProt Q00987); experiment: MDM2-luc reporter signal enhancers, multi-concentration potency testing, MDM2 ubiquitin-protein ligase inhibitor program, whole-cell format, luminescence detection, 384-well microplate (AID 1394); type: functional;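 note: MDM2 E3 inhibitors raise luminescence so EC50 is for signal enhancement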
Chain of E3 ubiquitin-protein ligase Mdm2 (Q00987 whole entry): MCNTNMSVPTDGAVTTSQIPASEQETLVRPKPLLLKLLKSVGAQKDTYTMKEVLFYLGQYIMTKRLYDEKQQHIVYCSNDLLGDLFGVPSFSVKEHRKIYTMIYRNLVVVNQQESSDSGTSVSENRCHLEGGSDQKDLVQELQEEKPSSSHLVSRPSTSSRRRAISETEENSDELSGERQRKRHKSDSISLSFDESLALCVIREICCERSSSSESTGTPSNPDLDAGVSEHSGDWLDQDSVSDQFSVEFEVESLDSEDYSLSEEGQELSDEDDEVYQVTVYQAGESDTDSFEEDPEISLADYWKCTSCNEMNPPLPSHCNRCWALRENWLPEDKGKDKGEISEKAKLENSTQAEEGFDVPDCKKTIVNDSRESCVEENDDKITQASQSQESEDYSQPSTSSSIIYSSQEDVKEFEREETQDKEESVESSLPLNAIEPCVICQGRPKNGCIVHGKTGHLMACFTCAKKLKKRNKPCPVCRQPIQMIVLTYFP

[18] = system: H4; experiment: Luminescence Cell-Based Dose Response HTS to Identify Activators of 5'UTR Stem-Loop Driven Prion Protein mRNA Translation in H4 Neuroglioblastoma Cells. [Related pubchem assays: 1829 (Project Summary), 1814 (Primary HTS)]; type: functional; conditions: Homo sapiens
[19] = Luminescence Cell-Based Dose Confirmation HTS to Identify Activators of 5'UTR Stem-Loop Driven Alpha-Synuclein mRNA Translation in H4 Neuroglioblastoma Cells. [Related pubchem assays: 1829 (Project Summary), 1814 (Primary HTS)]; type: functional

Cc1cc(=O)oc2cc(NC(=O)c3ccccc3Cl)ccc12
EC50 [1]: 208 nM (active)
EC50 [2]: 364 nM (active)
EC50 [3]: 345 nM (active)
EC50 [4]: < 100 nM (active)

Nc1c(C(=O)Nc2ccc(F)cc2)sc2nc(-c3ccco3)ccc12
IC50 [5]: > 50000 nM (not active)
IC50 [6]: > 50000 nM (not active)
IC50 [7]: > 100000 nM (inactive)

O=[N+]([O-])c1ccc(N2N=C(c3ccco3)CC2c2ccccc2)cc1 (centres undefined)
IC50 [8]: > 100000 nM (not active)

Cc1c(NC(=S)N/N=C/c2cccc(O)c2)c(=O)n(-c2ccccc2)n1C
IC50 [8]: 39500 nM (active)

Cc1nn(C(C)C)c(C)c1CN1CCCC(CCC(=O)NCc2ccccc2F)C1 (centres undefined)
EC50 [9]: < 100 nM (active)
EC50 [10]: < 4 nM (active)
EC50 [11]: > 60000 nM (not active)

O=[N+]([O-])c1ccc2c(c1)Sc1ccc(C(F)(F)F)cc1N2
IC50 [12]: 1410 nM (active)

CCCC(=O)NC1=C(N2CC2)C(=O)C(NC(=O)CCC)=C(N2CC2)C1=O
AC50 [13]: 6650 nM (active)
EC50 [14]: > 167000 nM (inactive)

COc1ccc(C2CC(=O)Nc3ccccc3S2(=O)=O)cc1OC (centres undefined)
IC50 [5]: 16100 nM (active)
IC50 [6]: < 23 nM (not active)

CC(C)n1cnc2c(N(C)c3ccccc3)nc(N(CCN(C)C)Cc3ccccc3)nc21
IC50 [15]: > 20000 nM (inactive)
EC50 [16]: 10600 nM (active)
EC50 [17]: 19300 nM (not active)

O=C(CCC1CCCN(Cc2cccc3c2OCO3)C1)NCc1ccc(F)c(F)c1 (centres undefined)
EC50 [9]: < 100 nM (active)
EC50 [10]: 216 nM (active)
EC50 [11]: > 60000 nM (not active)

COc1ccc(/C=N/NC(=O)c2ccc[nH]2)cc1
EC50 [1]: 343 nM (active)
EC50 [18]: < 100 nM (active)
EC50 [2]: 324 nM (active)
EC50 [3]: 460 nM (active)
EC50 [19]: 155 nM (active)
EC50 [4]: 114 nM (active)
